PubChem BioAssay (NCI)
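1) Cells in 96-well plates. 2) Compound, 48 h, 5 concentrations. 3) Linear interpolation between surrounding doses. 4) Unreached endpoint = highest concentration. TGI is the concentration that stops growth completely.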

How the values were obtained:
Assay in all cases: growth of human tumour cells (NCI), 48 h
786-0 renal = system: 786-0 renal
A498 renal = system: A498 renal
A549 NSCLC = system: A549 NSCLC
ACHN renal = system: ACHN renal
BT-549 breast = system: BT-549 breast
CAKI-1 renal = system: CAKI-1 renal
CCRF-CEM leukemia = system: CCRF-CEM leukemia
COLO 205 colon = system: COLO 205 colon
DU-145 prostate = system: DU-145 prostate
EKVX NSCLC = system: EKVX NSCLC
HCT-116 colon = system: HCT-116 colon
HCT-15 colon = system: HCT-15 colon
HL-60(TB) leukemia = system: HL-60(TB) leukemia
HOP-62 NSCLC = system: HOP-62 NSCLC
HOP-92 NSCLC = system: HOP-92 NSCLC
HS 578T breast = system: HS 578T breast
HT29 colon = system: HT29 colon
IGROV1 ovarian = system: IGROV1 ovarian
K-562 leukemia = system: K-562 leukemia
KM12 colon = system: KM12 colon
LOX IMVI melanoma = system: LOX IMVI melanoma
M14 melanoma = system: M14 melanoma
MALME-3M melanoma = system: MALME-3M melanoma
MCF7 breast = system: MCF7 breast
MDA-MB-231 breast = system: MDA-MB-231 breast
MDA-MB-435 = system: MDA-MB-435
MDA-N = system: MDA-N
MOLT-4 leukemia = system: MOLT-4 leukemia
NCI-H226 lung = system: NCI-H226 lung
NCI-H23 lung = system: NCI-H23 lung
NCI-H460 lung = system: NCI-H460 lung
NCI/ADR-RES ovarian = system: NCI/ADR-RES ovarian
OVCAR-3 ovarian = system: OVCAR-3 ovarian
OVCAR-4 ovarian = system: OVCAR-4 ovarian
OVCAR-5 ovarian = system: OVCAR-5 ovarian
OVCAR-8 ovarian = system: OVCAR-8 ovarian
PC-3 prostate = system: PC-3 prostate
RPMI-8226 leukemia = system: RPMI-8226 leukemia
RXF 393 renal = system: RXF 393 renal
SF-268 CNS = system: SF-268 CNS
SF-295 CNS = system: SF-295 CNS
SF-539 CNS = system: SF-539 CNS
SK-MEL-2 melanoma = system: SK-MEL-2 melanoma
SK-MEL-28 melanoma = system: SK-MEL-28 melanoma
SK-MEL-5 melanoma = system: SK-MEL-5 melanoma
SK-OV-3 ovarian = system: SK-OV-3 ovarian
SN12C renal = system: SN12C renal
SNB-19 CNS = system: SNB-19 CNS
SNB-75 CNS = system: SNB-75 CNS
SW-620 colon = system: SW-620 colon
T-47D breast = system: T-47D breast
TK-10 renal = system: TK-10 renal
U251 CNS = system: U251 CNS
UACC-257 melanoma = system: UACC-257 melanoma
UACC-62 melanoma = system: UACC-62 melanoma
UO-31 renal = system: UO-31 renal
HCC-2998 colon = system: HCC-2998 colon
NCI-H522 lung = system: NCI-H522 lung
SR leukemia = system: SR leukemia

`CC1(C)CN(c2ccccc2)C(=O)C1OC(=O)[C@@]1(C)C[C@@H]2C=C[C@H]1C2` (stereo partly specified) was tested, and the TGI (786-0 renal) was 39.2 µM, the TGI (A498 renal) was 61.3 µM and the TGI (A549 NSCLC) was 83.7 µM. For the same molecule, the TGI (ACHN renal) was > 100 µM, the TGI (BT-549 breast) was 82.5 µM and the TGI (CAKI-1 renal) was 61.5 µM. The TGI (CCRF-CEM leukemia) was 81.4 µM, the TGI (COLO 205 colon) was 34 µM and the TGI (DU-145 prostate) was > 100 µM. For the same molecule, the TGI (EKVX NSCLC) was 59.9 µM, the TGI (HCT-116 colon) was 35.8 µM and the TGI (HCT-15 colon) was 55.1 µM. It also gave a TGI (HL-60(TB) leukemia) of 46.3 µM, a TGI (HOP-62 NSCLC) of 40.8 µM and a TGI (HOP-92 NSCLC) of 60.6 µM. The TGI (HS 578T breast) was 54.7 µM, the TGI (HT29 colon) was 28.8 µM and the TGI (IGROV1 ovarian) was 41.3 µM. For the same molecule, the TGI (K-562 leukemia) was > 100 µM, the TGI (KM12 colon) was 45.2 µM and the TGI (LOX IMVI melanoma) was 40.3 µM. It also gave a TGI (M14 melanoma) of 40.1 µM, a TGI (MALME-3M melanoma) of 28.3 µM and a TGI (MCF7 breast) of 58 µM. For the same molecule, the TGI (MDA-MB-231 breast) was 79.3 µM, the TGI (MDA-MB-435) was 42 µM and the TGI (MDA-N) was 41.6 µM. For the same molecule, the TGI (MOLT-4 leukemia) was > 100 µM, the TGI (NCI-H226 lung) was 53.6 µM and the TGI (NCI-H23 lung) was 56 µM. For the same molecule, the TGI (NCI-H460 lung) was 55 µM, the TGI (NCI/ADR-RES ovarian) was 52.2 µM and the TGI (OVCAR-3 ovarian) was > 100 µM. For the same molecule, the TGI (OVCAR-4 ovarian) was 39.9 µM, the TGI (OVCAR-5 ovarian) was 56.6 µM and the TGI (OVCAR-8 ovarian) was > 100 µM. For the same molecule, the TGI (PC-3 prostate) was 83.2 µM, the TGI (RPMI-8226 leukemia) was 30 µM and the TGI (RXF 393 renal) was 35.4 µM. For the same molecule, the TGI (SF-268 CNS) was 82.5 µM, the TGI (SF-295 CNS) was 46.7 µM and the TGI (SF-539 CNS) was 52.9 µM. The TGI (SK-MEL-2 melanoma) was 35.4 µM, the TGI (SK-MEL-28 melanoma) was 35.1 µM and the TGI (SK-MEL-5 melanoma) was 29.4 µM. It also gave a TGI (SK-OV-3 ovarian) of 94.7 µM, a TGI (SN12C renal) of 49.8 µM and a TGI (SNB-19 CNS) of 65.5 µM. The TGI (SNB-75 CNS) was 75 µM, the TGI (SW-620 colon) was > 100 µM and the TGI (T-47D breast) was 73.2 µM. It also gave a TGI (TK-10 renal) of 64.7 µM, a TGI (U251 CNS) of 43.9 µM and a TGI (UACC-257 melanoma) of 42.5 µM. For the same molecule, the TGI (UACC-62 melanoma) was 41.4 µM and the TGI (UO-31 renal) was 30.8 µM.

`CCOC(=O)C(NC(=O)CC(C)C)(Nc1ccc(C(F)(F)F)cc1)C(F)(F)F` (stereo unspecified) was tested, and the TGI (786-0 renal) was > 100 µM, the TGI (A549 NSCLC) was > 100 µM and the TGI (ACHN renal) was 91 µM. The TGI (CCRF-CEM leukemia) was > 100 µM, the TGI (DU-145 prostate) was > 100 µM and the TGI (EKVX NSCLC) was > 100 µM. The TGI (HCC-2998 colon) was > 100 µM, the TGI (HCT-116 colon) was > 100 µM and the TGI (HCT-15 colon) was > 100 µM. For the same molecule, the TGI (HL-60(TB) leukemia) was 59.9 µM, the TGI (HOP-62 NSCLC) was > 100 µM and the TGI (HOP-92 NSCLC) was > 100 µM. The TGI (HS 578T breast) was > 100 µM, the TGI (HT29 colon) was > 100 µM and the TGI (IGROV1 ovarian) was > 100 µM. The TGI (K-562 leukemia) was > 100 µM, the TGI (KM12 colon) was 55.6 µM and the TGI (LOX IMVI melanoma) was > 100 µM. For the same molecule, the TGI (M14 melanoma) was > 100 µM, the TGI (MALME-3M melanoma) was > 100 µM and the TGI (MCF7 breast) was > 100 µM. For the same molecule, the TGI (MDA-MB-435) was > 100 µM, the TGI (MDA-N) was > 100 µM and the TGI (MOLT-4 leukemia) was > 100 µM. The TGI (NCI-H226 lung) was > 100 µM, the TGI (NCI-H23 lung) was > 100 µM and the TGI (NCI-H460 lung) was > 100 µM. The TGI (NCI-H522 lung) was > 100 µM, the TGI (NCI/ADR-RES ovarian) was > 100 µM and the TGI (OVCAR-3 ovarian) was > 100 µM. For the same molecule, the TGI (OVCAR-4 ovarian) was > 100 µM, the TGI (OVCAR-5 ovarian) was > 100 µM and the TGI (OVCAR-8 ovarian) was > 100 µM. The TGI (PC-3 prostate) was > 100 µM, the TGI (RPMI-8226 leukemia) was 93.8 µM and the TGI (RXF 393 renal) was > 100 µM. The TGI (SF-268 CNS) was > 100 µM, the TGI (SF-295 CNS) was > 100 µM and the TGI (SF-539 CNS) was > 100 µM. The TGI (SK-MEL-2 melanoma) was > 100 µM, the TGI (SK-MEL-28 melanoma) was > 100 µM and the TGI (SK-MEL-5 melanoma) was > 100 µM. For the same molecule, the TGI (SK-OV-3 ovarian) was > 100 µM, the TGI (SN12C renal) was > 100 µM and the TGI (SNB-19 CNS) was > 100 µM. The TGI (SNB-75 CNS) was 60.9 µM, the TGI (SR leukemia) was > 100 µM and the TGI (SW-620 colon) was > 100 µM. The TGI (T-47D breast) was 81.8 µM, the TGI (TK-10 renal) was > 100 µM and the TGI (U251 CNS) was > 100 µM. For the same molecule, the TGI (UACC-257 melanoma) was > 100 µM and the TGI (UO-31 renal) was > 100 µM.

With `NCCNCCCCCCNC(=O)c1cccc2cc3ccccc3nc12` the TGI (786-0 renal) was 2.88 µM, the TGI (A498 renal) was 9.49 µM and the TGI (A549 NSCLC) was 5.63 µM. The TGI (ACHN renal) was 5.98 µM, the TGI (BT-549 breast) was 25.2 µM and the TGI (CAKI-1 renal) was 18.5 µM. The TGI (CCRF-CEM leukemia) was 7.26 µM, the TGI (COLO 205 colon) was 13.2 µM and the TGI (DU-145 prostate) was 2.92 µM. It also gave a TGI (EKVX NSCLC) of 20.9 µM, a TGI (HCC-2998 colon) of 6.79 µM and a TGI (HCT-116 colon) of 6.33 µM. For the same molecule, the TGI (HCT-15 colon) was 25.5 µM, the TGI (HL-60(TB) leukemia) was 3.51 µM and the TGI (HOP-62 NSCLC) was 4.68 µM. For the same molecule, the TGI (HOP-92 NSCLC) was 9.28 µM, the TGI (HS 578T breast) was 6 µM and the TGI (HT29 colon) was 3.77 µM. For the same molecule, the TGI (IGROV1 ovarian) was 17.2 µM, the TGI (K-562 leukemia) was 6.77 µM and the TGI (KM12 colon) was 4.93 µM. It also gave a TGI (LOX IMVI melanoma) of 2.96 µM, a TGI (M14 melanoma) of 3.6 µM and a TGI (MALME-3M melanoma) of 7.92 µM. It also gave a TGI (MCF7 breast) of 5.39 µM, a TGI (MDA-MB-231 breast) of 7.13 µM and a TGI (MDA-MB-435) of 11.9 µM. The TGI (MDA-N) was 7.13 µM, the TGI (MOLT-4 leukemia) was 4.47 µM and the TGI (NCI-H226 lung) was 5.02 µM. It also gave a TGI (NCI-H23 lung) of 6.81 µM, a TGI (NCI-H460 lung) of 2.98 µM and a TGI (NCI-H522 lung) of 4.52 µM. It also gave a TGI (NCI/ADR-RES ovarian) of 38.4 µM, a TGI (OVCAR-3 ovarian) of 7.16 µM and a TGI (OVCAR-4 ovarian) of 4.7 µM. It also gave a TGI (OVCAR-5 ovarian) of 14 µM, a TGI (OVCAR-8 ovarian) of 5.27 µM and a TGI (PC-3 prostate) of 8.79 µM. For the same molecule, the TGI (RPMI-8226 leukemia) was 6.82 µM, the TGI (RXF 393 renal) was 9.68 µM and the TGI (SF-268 CNS) was 9.93 µM. It also gave a TGI (SF-295 CNS) of 10.6 µM, a TGI (SF-539 CNS) of 3.88 µM and a TGI (SK-MEL-2 melanoma) of 10.2 µM. It also gave a TGI (SK-MEL-28 melanoma) of 12.3 µM, a TGI (SK-MEL-5 melanoma) of 13.4 µM and a TGI (SN12C renal) of 7.8 µM. For the same molecule, the TGI (SNB-19 CNS) was 9.58 µM, the TGI (SNB-75 CNS) was 11.8 µM and the TGI (SW-620 colon) was 4.78 µM. It also gave a TGI (T-47D breast) of 21.5 µM, a TGI (TK-10 renal) of 20.8 µM and a TGI (U251 CNS) of 4.15 µM. The TGI (UACC-257 melanoma) was 15.2 µM, the TGI (UACC-62 melanoma) was 4.64 µM and the TGI (UO-31 renal) was 17.2 µM.
